Calls of active or inactive are those of the source.
Columns and labels:
Troponin, cardiac muscle = Troponin, cardiac muscle (Homo sapiens, UniProt P19429+P45379+P63316); assay: Fluorescence-based biochemical high throughput dose response assay for activators of the calcium sensitivity of cardiac Regulated Thin Filaments (RTF). [Related pubchem assays (depositor defined):AID493008, AID493018, AID504382, AID504383]; format: protein-complex assay
[1] = target: Nucleotide-binding oligomerization domain-containing protein 2 (Homo sapiens, UniProt Q9HC29); assay: inhibition of NOD2-driven NF-kB reporter – cell-based, luminescence, uHTS, HEK293 (AID 1566); format: functional
HEK293 [2] = assay: cells; format: functional, cell-based; settings: Homo sapiens
HEK293 [3] = assay: NOD2 signaling inhibitors in MDP-stimulated cells, cell-based, uHTS, luminescence (AID 2001); format: functional; settings: Homo sapiens
HEK293 [4] = assay: inhibition of NOD1-driven NF-kB reporter – cell-based, luminescence, uHTS, primary screen (AID 1578); format: functional; settings: Homo sapiens
Streptococcus = assay: GAS UMAA2166 growth inhibition – luminescence, BacTiterGlo, counter-screen for streptokinase expression inhibitor project, dose response (AID 1915); format: functional, organism-based;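 note: potency for reduction of bacterial viability or growth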
[5] = tested on: Streptococcus sp. 'group A'; assay: Streptococcus pyogenes SK(-)GAS viability under kanamycin – luminescence, BacTiterGlo, confirmation, counter-screen for streptokinase expression inhibitor project, dose response (AID 1900); format: functional, organism-based
HEK293 [6] = assay: cells; format: functional, cell-based; settings: Homo sapiens; remark: listed apart in the source
HEK293 [7] = assay: cells; format: functional, cell-based; settings: Homo sapiens; remark: listed apart in the source
[8] = Vero E6 cell cytotoxicity, dose response, cytotoxicity control for non-replicating M. tuberculosis project, secondary assay (AID 492998); format: functional, VeroE6; settings: Vero C1008
Vero [9] = assay: cells; format: functional, cell-based; settings: Chlorocebus sabaeus
Vero [10] = assay: cells; format: functional; settings: Chlorocebus sabaeus
[11] = THP-1 cell cytotoxicity, dose response, cytotoxicity control for non-replicating M. tuberculosis project (AID 489025); format: functional
[12] = target: T1, Short transient receptor potential channel 4 (Mus musculus, UniProt Q9QUQ5); assay: calcium entry via TRPC4 opening agents – cell-based, HEK293 TRPC4/mu-opioid, Fluo-4 calcium, dose response (AID 434937); format: functional
T1 sequence (Q9QUQ5 whole entry): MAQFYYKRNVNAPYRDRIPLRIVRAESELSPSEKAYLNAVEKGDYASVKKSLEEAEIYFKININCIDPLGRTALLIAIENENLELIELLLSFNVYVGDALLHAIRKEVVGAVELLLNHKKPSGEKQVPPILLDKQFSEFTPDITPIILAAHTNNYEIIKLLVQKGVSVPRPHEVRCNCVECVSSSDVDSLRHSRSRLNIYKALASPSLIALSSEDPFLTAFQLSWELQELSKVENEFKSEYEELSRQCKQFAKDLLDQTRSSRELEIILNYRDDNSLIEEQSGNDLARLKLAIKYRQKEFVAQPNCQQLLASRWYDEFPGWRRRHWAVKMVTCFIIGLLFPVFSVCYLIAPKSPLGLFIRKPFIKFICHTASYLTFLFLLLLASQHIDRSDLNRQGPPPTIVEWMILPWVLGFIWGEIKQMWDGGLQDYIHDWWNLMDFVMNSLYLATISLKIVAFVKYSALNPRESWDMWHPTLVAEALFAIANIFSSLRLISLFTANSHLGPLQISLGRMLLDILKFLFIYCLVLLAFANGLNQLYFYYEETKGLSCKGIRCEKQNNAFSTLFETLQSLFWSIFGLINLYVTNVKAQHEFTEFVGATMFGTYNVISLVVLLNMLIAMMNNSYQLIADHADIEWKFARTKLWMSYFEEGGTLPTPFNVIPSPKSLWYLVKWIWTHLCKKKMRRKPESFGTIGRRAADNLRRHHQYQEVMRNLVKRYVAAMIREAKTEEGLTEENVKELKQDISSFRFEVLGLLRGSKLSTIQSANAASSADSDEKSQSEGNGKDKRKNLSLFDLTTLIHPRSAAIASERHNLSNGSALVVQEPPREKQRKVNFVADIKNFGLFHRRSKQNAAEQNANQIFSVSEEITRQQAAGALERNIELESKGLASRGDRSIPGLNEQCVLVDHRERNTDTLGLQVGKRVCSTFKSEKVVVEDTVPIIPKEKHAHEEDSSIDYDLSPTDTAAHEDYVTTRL

cells = format: functional
[13] = target: DNA dC->dU-editing enzyme APOBEC-3A (Homo sapiens, UniProt P31941); assay: Dose Response confirmation of small molecule APOBEC3A DNA Deaminase Inhibitors via a fluorescence-based single-stranded DNA deaminase assay. [Related pubchem assays (depositor defined):AID493011, AID493024]; format: functional
[14] = target: DNA dC->dU-editing enzyme APOBEC-3G (Homo sapiens, UniProt Q9HC16); format: functional;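 note: Dose-response counterscreen measuring inhibition of APOBEC3G DNA deaminase activity, run while confirming APOBEC3A inhibitors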
Caspase-6 = target: T2, Caspase-6 (Homo sapiens, UniProt P55212); assay: inhibition of CASP6 peptide cleavage – biochemical, VEID-R110 fluorescence, cherry-pick, dose response (AID 720632)
T2 sequence (P55212 whole entry): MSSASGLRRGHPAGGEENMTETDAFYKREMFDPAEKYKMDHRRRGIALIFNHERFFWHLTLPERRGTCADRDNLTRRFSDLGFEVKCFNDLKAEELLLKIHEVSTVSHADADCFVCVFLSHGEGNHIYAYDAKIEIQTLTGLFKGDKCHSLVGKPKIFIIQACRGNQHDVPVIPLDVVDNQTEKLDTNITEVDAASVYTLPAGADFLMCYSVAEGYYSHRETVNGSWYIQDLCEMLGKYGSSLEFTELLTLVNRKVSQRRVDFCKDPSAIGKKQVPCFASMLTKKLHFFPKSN

Genome polyprotein = Genome polyprotein (dengue virus type 2, UniProt P29990); assay: flavivirus cap methylation enzyme inhibition – biochemical, confirmation dose response, primary screen (AID 588689); format: functional
[15] = target: T3, Long-chain-fatty-acid--AMP ligase FadD28 (Mycobacterium tuberculosis, UniProt P9WQ59); assay: Fluorescence polarization aasay to screen for inhibitors that compete for the binding of FadD28 to a bisubstrate Measured in Biochemical System Using Plate Reader - 2147-01_Inhibitor_Dose_CherryPick_Activity.; format: functional, Mycobacterium tuberculosis H37Rv
T3 sequence (P9WQ59 whole entry): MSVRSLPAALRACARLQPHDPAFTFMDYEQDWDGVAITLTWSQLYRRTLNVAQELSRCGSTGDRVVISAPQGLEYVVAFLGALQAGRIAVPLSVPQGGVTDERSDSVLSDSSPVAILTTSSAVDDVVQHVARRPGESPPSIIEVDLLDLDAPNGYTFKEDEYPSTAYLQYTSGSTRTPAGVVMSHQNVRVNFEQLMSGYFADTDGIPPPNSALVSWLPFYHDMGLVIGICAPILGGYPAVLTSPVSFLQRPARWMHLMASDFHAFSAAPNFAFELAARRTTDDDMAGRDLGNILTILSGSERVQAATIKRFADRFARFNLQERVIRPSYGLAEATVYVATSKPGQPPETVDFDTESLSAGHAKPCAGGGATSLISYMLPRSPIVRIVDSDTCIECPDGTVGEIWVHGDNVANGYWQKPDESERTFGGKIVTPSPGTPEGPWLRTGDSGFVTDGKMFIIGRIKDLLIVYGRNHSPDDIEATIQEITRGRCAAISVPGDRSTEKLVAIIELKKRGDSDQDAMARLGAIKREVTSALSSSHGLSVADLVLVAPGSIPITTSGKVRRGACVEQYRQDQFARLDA

[16] = target: T4, Heat shock factor protein 1 (Mus musculus, UniProt P38532); assay: decrease of HSF1-responsive luciferase luminescence – cell-based, NIH3T3, dose retest, confirmation (AID 2382); format: functional;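 note: NIH3T3 fibroblasts with HSF1-driven luciferase reporter stressed by proteasome inhibitor MG132; luminescence from HSF1-driven luciferase expression after 8 hours of MG132 stress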
T4 sequence (P38532 whole entry): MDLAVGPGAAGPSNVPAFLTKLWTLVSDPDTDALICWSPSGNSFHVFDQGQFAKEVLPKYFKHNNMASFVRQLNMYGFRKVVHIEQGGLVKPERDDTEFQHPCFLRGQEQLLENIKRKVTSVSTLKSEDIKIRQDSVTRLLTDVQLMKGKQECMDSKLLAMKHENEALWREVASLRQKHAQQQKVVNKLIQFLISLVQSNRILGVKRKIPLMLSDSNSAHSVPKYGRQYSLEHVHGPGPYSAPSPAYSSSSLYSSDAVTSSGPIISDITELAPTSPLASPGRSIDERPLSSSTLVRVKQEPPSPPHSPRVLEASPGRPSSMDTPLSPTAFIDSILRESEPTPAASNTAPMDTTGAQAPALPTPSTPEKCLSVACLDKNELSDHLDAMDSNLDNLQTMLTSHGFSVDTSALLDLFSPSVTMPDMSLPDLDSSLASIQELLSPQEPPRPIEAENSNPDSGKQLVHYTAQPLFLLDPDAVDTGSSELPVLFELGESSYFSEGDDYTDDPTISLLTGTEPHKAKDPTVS

H4 = assay: Luminescence Cell-Based Dose Response HTS to Identify Activators of 5'UTR Stem-Loop Driven Prion Protein mRNA Translation in H4 Neuroglioblastoma Cells. [Related pubchem assays: 1829 (Project Summary), 1814 (Primary HTS)]; format: functional; settings: Homo sapiens

CC(COC(=O)c1ccccc1)(COC(=O)c1ccccc1)/[N+]([O-])=C/c1ccccc1
EC50 (Troponin, cardiac muscle): > 71.5 µM (inactive)

COc1ccc(Cl)cc1/C=C/c1ccc2cccc(O)c2n1
EC50 [1]: > 20 µM (inactive)
IC50 (HEK293 [2]): > 20 µM (inactive)
IC50 (HEK293 [3]): 4.73 µM (inactive)
EC50 (HEK293 [4]): 5.5 µM (active)
EC50 (Streptococcus): 3.58 µM (active)
EC50 [5]: 0.786 µM (active)
IC50 (HEK293 [6]): > 20 µM (inactive)
IC50 (HEK293 [7]): 14 µM (active)

c1ccc(Nc2nc(Nc3ccccc3)nc(N3CCNCC3)n2)cc1
CC50 [8]: > 20 µM (active)
IC50 (Vero [9]): > 25 µM (active)
CC50 (Vero [10]): 22.6 µM (active)
CC50 [11]: 23 µM (active)
EC50 [12]: 3.35 µM (active)
IC50 (cells): 26.5 µM (active)

O=C(CCSc1ccccc1)N1CCN(C(=O)c2ccco2)CC1
EC50 (Troponin, cardiac muscle): > 71.5 µM (inactive)

C=CCOc1ccc(C(c2c(C(=O)O)[nH]c3ccccc23)c2c(C(=O)O)[nH]c3ccccc23)cc1
IC50 [13]: 21.5 µM (active)
IC50 [14]: 28.8 µM (active)
AC50 (Caspase-6): 14.2 µM (active)
IC50 (Genome polyprotein): 22 µM (active)
AC50 [15]: 12 µM (active)

O=C(Nc1ccncc1)c1c(F)cccc1F
EC50 [1]: 4.55 µM (active)
IC50 (HEK293 [2]): > 20 µM (inactive)
IC50 (HEK293 [3]): 4.33 µM (active)
EC50 [16]: 24.1 µM (active)
EC50 (HEK293 [4]): 9.17 µM (active)
IC50 (HEK293 [6]): > 20 µM (inactive)
IC50 (HEK293 [7]): 3.91 µM (active)

CCN1C(=O)/C(=C/N2CCc3ccccc32)SC1=S
EC50 (H4): 4.21 µM (active)
EC50 (Troponin, cardiac muscle): 5.4 µM (active)

Cc1ccc(CNC(=O)CCNC(=O)c2ccc([N+](=O)[O-])cc2)cc1
IC50 [13]: 6.67 µM (active)
IC50 [14]: 10.9 µM (active)

COc1ccc(-c2cc(C(=O)NCC(c3ccccc3)N(C)C)c3ccccc3n2)cc1OC (centres undefined)
EC50 [12]: 10.6 µM (active)

CCN1CCN(c2ccc(S(=O)(=O)N3CCCCC3)cc2NC(=O)C(C)Oc2ccc(F)cc2)CC1 (centres undefined)
EC50 [12]: 10.6 µM (active)

Reference: ChEMBL document CHEMBL1201862, “PubChem BioAssay data set” (2004)
